Laboratory results taken from ChEMBL document CHEMBL4311972, “Discovery of a benzothiophene-flavonol halting miltefosine and antimonial drug resistance in Leishmania parasites through the application of medicinal chemistry, screening and genomics” (Eur J Med Chem, 2019).
pEC50: −log10 of the molar value.

Experiments:
Trypanosoma brucei = experiment: Antitrypanosomal activity against Trypanosoma brucei bloodstream form assessed as parasite growth inhibition incubated for 72 hrs by resazurin dye based assay; type: functional, organism-based; details: for pEC50: Trypanosoma brucei, 72 h, read-out: EC50
786-0 = experiment: Mitochondrial toxicity in human 786-0 cells at 10 uM incubated with compound for 6 hrs followed by incubation with MitoTracker Red chloromethyl-X-rosamine dye for 45 mins by imaging analysis; type: cell-based; details: 786-0, 6 h
CYP3A4 = CYP3A4 (Homo sapiens, UniProt P08684); experiment: Inhibition of human microsomal CYP3A4 expressed in baculovirus infected insect cells at 10 uM using luciferin-IPA as substrate preincubated with enzyme/substrate mixture for 30 mins followed by further incubation with NADPH for 30 mins by CYP450 luciferase Glo assay relative to control; type: ADME; details: probe luciferin-IPA
CYP1A2 = biological target: T1, CYP1A2 (Homo sapiens, UniProt P05177); experiment: Inhibition of human microsomal CYP1A2 expressed in baculovirus infected insect cells at 10 uM using luciferin-1A2 as substrate preincubated with enzyme/substrate mixture for 30 mins followed by further incubation with NADPH for 30 mins by CYP450 luciferase Glo assay relative to control; type: ADME; details: probe luciferin-1A2
T1 sequence (P05177 whole entry): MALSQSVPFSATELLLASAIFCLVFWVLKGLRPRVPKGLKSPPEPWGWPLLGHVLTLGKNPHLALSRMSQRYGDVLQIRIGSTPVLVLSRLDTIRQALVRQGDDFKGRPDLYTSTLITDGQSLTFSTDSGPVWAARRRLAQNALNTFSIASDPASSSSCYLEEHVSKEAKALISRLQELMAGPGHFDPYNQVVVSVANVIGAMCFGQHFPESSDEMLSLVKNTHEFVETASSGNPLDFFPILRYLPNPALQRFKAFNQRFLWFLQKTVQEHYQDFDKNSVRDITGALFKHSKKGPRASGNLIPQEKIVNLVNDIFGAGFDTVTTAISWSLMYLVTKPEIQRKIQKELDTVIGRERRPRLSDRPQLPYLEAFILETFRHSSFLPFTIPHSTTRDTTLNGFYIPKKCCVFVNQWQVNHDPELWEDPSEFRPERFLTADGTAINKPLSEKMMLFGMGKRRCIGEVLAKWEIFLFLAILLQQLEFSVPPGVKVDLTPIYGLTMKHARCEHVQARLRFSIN

[1] = Selectivity index, ratio of CC50 for human THP1 cells to EC50 for Trypanosoma brucei bloodstream form; type: toxicity; details: read-out: Ratio CC50/EC50
CYP2C9 = CYP2C9 (Homo sapiens, UniProt P11712); experiment: Inhibition of human microsomal CYP2C9 expressed in baculovirus infected insect cells at 10 uM using luciferin-H as substrate preincubated with enzyme/substrate mixture for 30 mins followed by further incubation with NADPH for 30 mins by CYP450 luciferase Glo assay relative to control; type: ADME; details: probe luciferin-H
hERG (KCNH2) = hERG (KCNH2) (Homo sapiens, UniProt Q12809); experiment: Inhibition of human ERG at 10 uM incubated for 2 hrs by fluorescence polarization assay relative to control
[2] = Cytotoxicity against human A549 cells assessed as cell growth at […] incubated for 48 hrs by Celltiter-Glo luminescence assay relative to control; type: cell-based; parameters: dose or concentration left out as unconfirmed; details: read-out: Activity
CYP2C19 = CYP2C19 (Homo sapiens, UniProt P33261); experiment: Inhibition of human microsomal CYP2C19 expressed in baculovirus infected insect cells at 10 uM using luciferin-H EGE as substrate preincubated with enzyme/substrate mixture for 30 mins followed by further incubation with NADPH for 30 mins by CYP450 luciferase Glo assay relative to control; type: ADME; details: probe luciferin-H EGE
CYP2D6 = CYP2D6 (Homo sapiens, UniProt P10635); experiment: Inhibition of human microsomal CYP2D6 expressed in baculovirus infected insect cells at 10 uM using luciferin-ME as substrate preincubated with enzyme/substrate mixture for 30 mins followed by further incubation with NADPH for 30 mins by CYP450 luciferase Glo assay relative to control; type: ADME; details: probe luciferin-ME
[3] = Cytotoxicity against human THP1 cells by MTT assay; type: cell-based, THP-1
Leishmania infantum = experiment: Antileishmanial activity against luciferase expressing intracellular amastigote stage of Leishmania infantum infected in human THP1 cells assessed as parasite growth inhibition measured after 48 to 72 hrs by steady-glo luciferase assay; type: functional, organism-based

Sequence of CYP2D6 (P10635 whole entry): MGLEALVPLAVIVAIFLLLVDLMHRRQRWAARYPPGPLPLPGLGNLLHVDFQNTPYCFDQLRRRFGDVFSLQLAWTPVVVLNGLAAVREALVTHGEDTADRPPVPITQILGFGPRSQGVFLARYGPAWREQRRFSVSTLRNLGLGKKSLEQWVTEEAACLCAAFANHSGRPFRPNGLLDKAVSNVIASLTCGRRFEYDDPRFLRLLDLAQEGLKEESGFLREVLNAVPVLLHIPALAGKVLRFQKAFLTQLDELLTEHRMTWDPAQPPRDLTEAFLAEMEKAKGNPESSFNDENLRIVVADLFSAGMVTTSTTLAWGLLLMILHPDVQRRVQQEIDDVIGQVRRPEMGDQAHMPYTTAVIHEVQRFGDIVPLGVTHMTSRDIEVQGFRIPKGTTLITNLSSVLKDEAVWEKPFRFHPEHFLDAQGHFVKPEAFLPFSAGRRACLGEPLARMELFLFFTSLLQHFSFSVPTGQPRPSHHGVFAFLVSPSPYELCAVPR
Sequence of hERG (KCNH2) (Q12809 whole entry): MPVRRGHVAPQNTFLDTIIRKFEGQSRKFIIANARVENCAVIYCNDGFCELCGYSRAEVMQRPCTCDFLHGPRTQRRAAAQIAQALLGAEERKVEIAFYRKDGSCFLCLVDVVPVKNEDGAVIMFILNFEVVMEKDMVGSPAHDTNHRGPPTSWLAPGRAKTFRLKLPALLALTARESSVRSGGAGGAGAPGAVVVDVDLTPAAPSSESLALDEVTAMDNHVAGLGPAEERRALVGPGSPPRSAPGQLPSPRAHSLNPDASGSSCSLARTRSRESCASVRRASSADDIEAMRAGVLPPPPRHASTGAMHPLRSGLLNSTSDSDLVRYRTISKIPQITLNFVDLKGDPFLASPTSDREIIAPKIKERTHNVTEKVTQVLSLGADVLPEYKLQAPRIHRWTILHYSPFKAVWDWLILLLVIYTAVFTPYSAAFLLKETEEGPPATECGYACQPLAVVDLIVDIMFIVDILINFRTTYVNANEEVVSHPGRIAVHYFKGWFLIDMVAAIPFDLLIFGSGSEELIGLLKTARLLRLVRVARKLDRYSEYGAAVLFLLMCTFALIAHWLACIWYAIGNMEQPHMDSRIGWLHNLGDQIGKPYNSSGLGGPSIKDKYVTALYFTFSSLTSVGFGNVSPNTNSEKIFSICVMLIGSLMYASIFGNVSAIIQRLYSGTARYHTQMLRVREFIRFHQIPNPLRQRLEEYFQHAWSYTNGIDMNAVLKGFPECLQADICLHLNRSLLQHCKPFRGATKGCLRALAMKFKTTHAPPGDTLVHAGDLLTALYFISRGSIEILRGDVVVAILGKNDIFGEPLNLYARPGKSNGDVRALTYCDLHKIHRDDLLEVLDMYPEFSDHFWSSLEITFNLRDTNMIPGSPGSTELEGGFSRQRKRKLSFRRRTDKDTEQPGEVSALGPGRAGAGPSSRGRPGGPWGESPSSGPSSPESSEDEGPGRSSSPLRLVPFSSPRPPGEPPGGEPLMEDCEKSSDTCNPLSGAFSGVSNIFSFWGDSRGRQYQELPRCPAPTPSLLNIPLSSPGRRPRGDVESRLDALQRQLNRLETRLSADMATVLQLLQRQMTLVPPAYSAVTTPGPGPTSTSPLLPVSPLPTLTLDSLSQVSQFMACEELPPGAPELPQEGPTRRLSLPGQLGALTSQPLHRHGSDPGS
Sequence of CYP2C19 (P33261 whole entry): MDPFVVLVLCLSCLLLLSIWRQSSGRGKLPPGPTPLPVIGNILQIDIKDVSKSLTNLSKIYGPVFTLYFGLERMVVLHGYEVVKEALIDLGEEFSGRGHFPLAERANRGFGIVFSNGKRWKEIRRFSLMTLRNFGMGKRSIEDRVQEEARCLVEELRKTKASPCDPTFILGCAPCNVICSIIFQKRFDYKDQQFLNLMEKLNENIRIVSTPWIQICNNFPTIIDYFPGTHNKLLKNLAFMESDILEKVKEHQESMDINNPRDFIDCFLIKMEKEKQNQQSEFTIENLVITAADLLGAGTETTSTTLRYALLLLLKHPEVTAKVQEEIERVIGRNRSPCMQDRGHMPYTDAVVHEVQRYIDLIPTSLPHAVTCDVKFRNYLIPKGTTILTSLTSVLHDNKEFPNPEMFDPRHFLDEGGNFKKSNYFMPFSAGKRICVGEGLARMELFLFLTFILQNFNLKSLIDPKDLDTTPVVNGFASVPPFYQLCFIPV
Sequence of CYP2C9 (P11712 whole entry): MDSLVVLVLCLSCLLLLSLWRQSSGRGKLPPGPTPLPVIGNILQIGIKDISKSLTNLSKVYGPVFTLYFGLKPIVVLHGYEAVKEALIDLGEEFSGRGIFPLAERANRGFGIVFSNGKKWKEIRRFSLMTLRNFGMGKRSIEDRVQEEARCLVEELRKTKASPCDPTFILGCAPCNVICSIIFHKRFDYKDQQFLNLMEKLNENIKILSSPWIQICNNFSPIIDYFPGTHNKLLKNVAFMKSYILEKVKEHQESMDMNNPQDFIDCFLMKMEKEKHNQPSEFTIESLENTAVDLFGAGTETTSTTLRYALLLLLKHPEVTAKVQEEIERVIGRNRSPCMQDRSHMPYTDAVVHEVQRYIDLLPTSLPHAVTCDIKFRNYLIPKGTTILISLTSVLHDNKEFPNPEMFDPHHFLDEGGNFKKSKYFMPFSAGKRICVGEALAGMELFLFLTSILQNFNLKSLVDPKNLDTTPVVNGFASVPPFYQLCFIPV
Sequence of CYP3A4 (P08684 whole entry): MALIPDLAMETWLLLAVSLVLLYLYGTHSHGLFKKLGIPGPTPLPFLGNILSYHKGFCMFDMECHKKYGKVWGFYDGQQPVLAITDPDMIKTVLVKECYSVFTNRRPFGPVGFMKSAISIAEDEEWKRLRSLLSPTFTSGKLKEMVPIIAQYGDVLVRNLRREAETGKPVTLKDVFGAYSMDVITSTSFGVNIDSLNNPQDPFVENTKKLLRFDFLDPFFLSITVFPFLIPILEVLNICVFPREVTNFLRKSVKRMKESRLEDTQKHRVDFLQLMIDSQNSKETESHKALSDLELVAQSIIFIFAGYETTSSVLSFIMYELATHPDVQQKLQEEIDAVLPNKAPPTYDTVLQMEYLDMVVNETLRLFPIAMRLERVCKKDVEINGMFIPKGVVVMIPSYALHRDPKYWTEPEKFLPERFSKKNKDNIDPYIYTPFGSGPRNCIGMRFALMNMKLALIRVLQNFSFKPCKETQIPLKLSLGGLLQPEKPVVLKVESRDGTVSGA

| pEC50 (Trypanosoma brucei) | inhibition at 0.5 h, 10 µM (CYP3A4) | inhibition at 0.5 h, 10 µM (CYP1A2) | inhibition at 0.5 h, 10 µM (CYP2C9) | inhibition at 0.5 h, 10 µM (CYP2C19) | inhibition at 0.5 h, 10 µM (CYP2D6) | EC50 (Trypanosoma brucei) | Structure (SMILES) | Activity (786-0) | selectivity ratio [1] | inhibition at 2 h, 10 µM (hERG (KCNH2)) | viability at 48 h [2] | CC50 [3] | EC50 (Leishmania infantum) |
| --- | --- | --- | --- | --- | --- | --- | --- | --- | --- | --- | --- | --- | --- |
| 6.40 | 55.5% | 101% | 72.7% | 80.3% | 105% | – | COc1ccc2c(=O)c(O)c(-c3ccc4c(c3)OCO4)oc2c1 | 6.41% | 250 | 9.49% | 43.2% | > 100 µM | – |
| 5.27 | -5.72% | 57.5% | 5.82% | -6.35% | -3.33% | – | O=c1c(O)c(-c2csc3ccccc23)oc2cc(Cl)ccc12 | 81.33% | – | 16.3% | -49.6% | 50 to 100 µM | Not Active |
| 5.85 | 11% | 101% | 28.8% | 32.6% | -8% | – | COc1ccc2oc(-c3c[nH]c4ccccc34)c(O)c(=O)c2c1 | -12.53% | 8 | 41.2% | 20.9% | 12.5 to 25 µM | – |
| 5.55 | 23.5% | 98.8% | 35.1% | 26.2% | 25.3% | – | Cc1csc(-c2oc3ccc(C)cc3c(=O)c2O)c1 | -13.79% | 36 | 13.2% | 15.3% | > 100 µM | – |
| 5.31 | 79.4% | 108% | 45.5% | 35.2% | 9.1% | – | COc1ccc2c(=O)c(O)c(-c3sccc3C)oc2c1 | -8.17% | 3 | -3.84% | 65% | 12.5 to 25 µM | – |
| 5.70 | -19.3% | 81.3% | 19.4% | 22.4% | 16% | – | Cc1ccc2oc(-c3csc4ccccc34)c(O)c(=O)c2c1 | -21.98% | – | -21.6% | 129% | < 12.5 µM | Not Active |
| 5.24 | 4.51% | 94.8% | 29.2% | 20.9% | 30.6% | – | COc1ccc2oc(-c3cc(C)cs3)c(O)c(=O)c2c1 | -5.29% | 4 | 6.55% | 98.8% | 25 to 50 µM | – |
| 5.77 | 21.5% | 51.9% | -22.6% | 31.5% | 34% | – | O=c1c(O)c(-c2cccc(-c3ccc(O)c(O)c3)c2)oc2ccc(O)cc12 | -1.03% | 15 | 4.2% | 32.5% | 25 to 50 µM | – |
| – | 46.9% | 92.4% | 14.1% | 54.5% | 50.2% | Not Active | CCOc1c(-c2csc3ccccc23)oc2ccc(OC)cc2c1=O | -27.16% | – | 11.8% | 120% | 25 to 50 µM | Not Active |
| 5.51 | 5.81% | 90% | 28.1% | 62.3% | 20.3% | – | COc1ccc2c(=O)c(O)c(-c3csc4ccccc34)oc2c1 | -22.67% | – | -4.35% | 53.9% | 25 to 50 µM | Not Active |
| 5.31 | 17.6% | 96.1% | 40.1% | 35.2% | 40.1% | – | Cc1csc(-c2oc3ccc(O)cc3c(=O)c2O)c1 | 4.24% | 2 | 16.1% | 93.8% | 10 to 25 µM | – |
| 5.47 | 24.5% | 106% | 53.5% | 19.2% | 21.2% | – | COc1cccc2oc(-c3cc(C)cs3)c(O)c(=O)c12 | -7.63% | 4 | -7.47% | 25.3% | 12.5 to 25 µM | – |
| 5.59 | -1.84% | 97.7% | 28.9% | 31.3% | 6.45% | – | O=c1c(O)c(-c2csc3ccccc23)oc2ccccc12 | -22.23% | – | -22.7% | 50.3% | < 25 µM | Not Active |
| 5.35 | 13.2% | 94.2% | 37% | 39.1% | 28.1% | – | Cc1ccc2c(=O)c(O)c(-c3csc4ccccc34)oc2c1 | -19.4% | – | -15% | 50.1% | 50 to 100 µM | Not Active |
| 5.52 | 52.5% | 83.1% | 40.1% | 22% | 40.6% | – | COc1ccc2oc(-c3cccc(-c4ccc(OC)c(OC)c4)c3)c(O)c(=O)c2c1 | -9.66% | 8 | -14.3% | 19.5% | 25 to 50 µM | – |
| 5.48 | 10.4% | 96.5% | 6.64% | 19.1% | 22.6% | – | Cc1ccc2oc(-c3ccc(C)s3)c(O)c(=O)c2c1 | -15.83% | 7 | 34.3% | 30.9% | 25 to 50 µM | – |
| – | 48.2% | 57.2% | 19.6% | 31.7% | 66.5% | Not Active | CCCOc1c(-c2csc3ccccc23)oc2ccc(OC)cc2c1=O | 95.63% | – | 33.9% | 60.1% | 12.5 to 25 µM | Not Active |
| – | 11.5% | 81.8% | 23% | 46.1% | 24.7% | Not Active | CCOc1ccc2c(=O)c(O)c(-c3csc4ccccc34)oc2c1 | 29.51% | – | -3.21% | 11.9% | 12.5 to 25 µM | Not Active |

| Structure (SMILES) | pEC50 (Trypanosoma brucei) | inhibition at 0.5 h, 10 µM (CYP3A4) | inhibition at 0.5 h, 10 µM (CYP1A2) | inhibition at 0.5 h, 10 µM (CYP2C9) | inhibition at 0.5 h, 10 µM (CYP2C19) | inhibition at 0.5 h, 10 µM (CYP2D6) | EC50 (Trypanosoma brucei) | Activity (786-0) | selectivity ratio [1] | inhibition at 2 h, 10 µM (hERG (KCNH2)) | viability at 48 h [2] | CC50 [3] | EC50 (Leishmania infantum) |
| --- | --- | --- | --- | --- | --- | --- | --- | --- | --- | --- | --- | --- | --- |
| COc1ccc2oc(-c3csc4ccccc34)c(OC(=O)N(C)C)c(=O)c2c1 | – | 47.4% | 61.1% | -6.48% | 26.3% | 20.3% | Not Active | -42.09% | – | -17.9% | 104% | 12.5 to 25 µM | Not Active |
